Data set [1] deals with Mycolicibacterium aurum DSM 43999. In words: Antimycobacterial microdilution broth MIC (resazurin), M. aurum. The following applies: DSM43999, read-out: MIC M. aurum. Type of data set: cell-based. In general terms: Broth dilution looks for growth in wells or tubes with falling amounts of substance.
Data set [2] concerns Escherichia coli CCM 3954, ATCC 25922. The data set is described as follows: Antibacterial microdilution broth MIC, EC. Type of data set: cell-based.
Data set [3] concerns Candida albicans CCM 8320, ATCC 24433. The data set is described as follows: Antifungal microdilution broth MIC, CA.
For a further data set, the system named is HepG2 cell line. The data set is described as follows: Cytotoxicity CellTiter 96, HepG2. The following applies: 24 h incubation, ^c compound precipitated in the testing medium, ^d over the limit of tested concentrations. Type of data set: cell-based, human.
Data set [4] deals with Candida krusei CCM 8271, ATCC 6258. The data set is described as follows: Antifungal microdilution broth MIC, CK. The following applies: Pichia kudriavzevii.
For data set [5] the following is noted: buffer, 3 h, 1 µM, pH 7.4.
Method: HPLC-MS stability determination in PBS (pH 7.4)
Briefly, compounds were dissolved in DMSO to produce stock sample solutions.
NaOH. The concentration of tested compounds was set at 1 µM.
After that, 150 µL of supernatant was
transferred to the vial and analyzed by LC-MS.
3000 RS coupled with a Q Exactive Plus orbitrap mass spectrometer to obtain the areas (Thermo Fisher
Scientific, Bremen, Germany). Reverse-phase C18 column Kinetex EVO (Phenomenex, Torrance, CA,
USA) was used as a stationary phase, and purified water with 0.1% formic acid (mobile phase A) and
LC-MS grade acetonitrile with 0.1% formic acid (mobile phase B) were used as the mobile phases.
Gradient elution was used to determine purities and mass spectra. The method started with 5% B for
0.3 min, then the gradient switched to 100% B in the third min, remained at 100% B for 0.7 min and
then went back to 5% B with equilibration for 3.5 min. The total run time of the method was 7.5 min.
The column temperature was kept constant at 27 °C, the flow of the mobile phase was 0.5 mL/min,
and the injection volume was 1 µL.
For data set [6], the system named is Acinetobacter baumannii DSM 30007, ATCC 19606. In words: Antibacterial microdilution broth MIC, ACI. Format: cell-based.
Data set [7] deals with Pseudomonas aeruginosa CCM 3955, ATCC 27853. The data set is described as follows: Antibacterial microdilution broth MIC, PA. Format: cell-based.
In data set [8] the test system is Staphylococcus aureus subsp. aureus CCM 4750, ATCC 43300 (MRSA). The data set is described as follows: Antibacterial microdilution broth MIC, MRSA. Particulars: Staphylococcus aureus. Format: cell-based.
The test system of data set [9] is Aspergillus fumigatus ATCC 204305. The data set is described as follows: Antifungal microdilution broth MIC, AF.
The test system of another data set is A498 cell line. In words: Cytotoxicity CellTiter 96, A498. Format: cell-based. Particulars: Homo sapiens, 24 h incubation. As for the experimental part: (§1) The cytotoxicity of final compounds was determined in human hepatocellular carcinoma cell line HepG2. Additional testing of selected compounds was performed on human epithelial kidney cancer cell line A498, human prostate cancer cell line PC‐3, human glioblastoma cell line U‐87 MG, and normal human proximal tubule cell line HK‐2.
(§2) Cytotoxicity determination […]
(§3) For subculturing, the cells were harvested after trypsin/EDTA (Sigma–Aldrich) treatment at 37 °C. To evaluate cytotoxicity, the cells treated with the tested substances were used as experimental groups whereas untreated HepG2 cells served as controls. The cells were seeded in density 10,000 cells per well in a 96 well plate. The next day the cells were treated with each of the tested substances dissolved in DMSO. The tested substances were […]
(§4) in triplicates according to their solubility. Simultaneously, the controls representing 100% cell viability, 0% cell viability (the cells treated with 10% DMSO), no cell control and vehiculum controls were also […]
the reagent from the kit CellTiter 96 AQueous One Solution Cell Proliferation Assay (CellTiter 96; PROMEGA, Fitchburg, USA) was added. After 2h incubation at 37 °C, absorbance of samples was recorded at 490 nm (TECAN, Infinita M200, Austria). A standard toxicological parameter IC50 was calculated by nonlinear regression from a semilogarithmic plot of incubation concentration versus percentage of absorbance relative to untre ated controls using GraphPad Prism 8 software.
Human epithelial kidney carcinoma A498 cell line, obtained from American Type Culture Collection (ATCC, Manassas, VA, USA, catalogue No.: HTB -44), was cultured in RPMI medium, Human normal kidney proximal tubule HK-2 cell line obtained from ATCC (ATCC, Manassas, VA, USA, catalogue No.:
(§5) Kaighn's Modification of Ham's F-12 Medium and human glioblastoma astrocytoma U-87 MG cell line, […]
Glucose medium. All cultures were supplemented with 10% fetal bovine serum, 1% non-essential amino acids (A498, HK-2 and U-87 MG), 1% sodium pyruvate (A498, HK-2 and U-87 MG) and 2 mM L-glutamine. […]

The subject of another data set is PC‐3 cell line. The data set is described as follows: Cytotoxicity CellTiter 96, PC-3. Format: cell-based. Particulars: Homo sapiens, 24 h incubation. The protocol: as §1, §2, §3, §4
the reagent from the kit CellTiter 96 AQueous One Solution Cell Proliferation Assay (CellTiter 96; PROMEGA, Fitchburg, USA) was added. After 2h incubation at 37 °C, absorbance of samples was recorded at 490 nm (TECAN, Infinita M200, Austria). A standard toxicological parameter IC50 was calculated by nonlinear regression from a semilogarithmic plot of incubation concentration versus percentage of absorbance relative to untre ated controls using GraphPad Prism 8 software. […]
as §5
Glucose medium. All cultures were supplemented with 10% fetal bovine serum, 1% non-essential amino acids (A498, HK-2 and U-87 MG), 1% sodium pyruvate (A498, HK-2 and U-87 MG) and 2 mM L-glutamine. All cell culture consumables were purchased from Merck (Darmstadt, Germany). The cells

Where [10] appears, read: ATCC204305, 24 h, read-out: MIC AF 24h.
Where [11] appears, read: ATCC204305, 48 h, read-out: MIC AF 48h.

Molecules are shown by their SMILES. Converted amounts (≈) assume the structure as drawn. Where two headings read alike, the source gives them in different places.

The term MIC denotes the smallest concentration in the dilution series that meets the test's criterion for growth inhibition. The IC50 is the concentration that gives 50% inhibition. Read a low IC50 as inhibition by little substance. `COc1ccc(CC(=O)Nc2cccc(Cl)n2)cc1` [Compound 12, 2-(4-methoxyphenyl)-N-(6-chloropyridin-2-yl)acetamide]: the MIC was 62.5 µg/mL (≈ 226 µM) in data set [1]; more than 500 µM in [2] (24 h, read-out: MIC EC 24h); more than 500 µM in data set [2] (48 h, read-out: MIC EC 48h); more than 500 µM in [3] (24 h, read-out: MIC CA 24h); more than 500 µM in data set [3] (48 h, read-out: MIC CA 48h); more than 500 µM in [4] (24 h, read-out: MIC CK 24h). The MIC in data set [4] (48 h, read-out: MIC CK 48h) was more than 500 µM; in data set [6] (24 h, read-out: MIC ACI 24h) it was more than 500 µM; in data set [6] (48 h, read-out: MIC ACI 48h), more than 500 µM; in [7] (24 h, read-out: MIC PA 24h), more than 500 µM; in [7] (48 h, read-out: MIC PA 48h) it was more than 500 µM; in data set [8] (24 h, read-out: MIC MRSA 24h), 500 µM (≈ 138 µg/mL). In addition, the minimal inhibitory concentration (MIC) was more than 500 µM in [8] (48 h, read-out: MIC MRSA 48h); more than 500 µM in [9] (setting [10]); more than 500 µM in [9] (setting [11]). Besides, the IC50 in the data set with HepG2 cell line was 516 µM; in the data set with HepG2 cell line (Homo sapiens, HepG2, 24 h) it was more than 500 µM. Also, in [5], the “concentration remaining (hydrolytic stability)” value is not below 90%.
Regarding `O=C(Cc1cccc(Cl)c1)Nc1ccc(Cl)cn1` [Compound 17, 2-(3-chlorophenyl)-N-(5-chloropyridin-2-yl)acetamide], the IC50 with A498 cell line is 135 µM; in the data set on HepG2 cell line (Homo sapiens, HepG2, 24 h) it was 112 µM; in the data set on PC‐3 cell line, 213 µM. Moreover, the MIC in data set [1] was 250 µg/mL (≈ 889 µM); in data set [2] (24 h, read-out: MIC EC 24h), more than 500 µM; in data set [2] (48 h, read-out: MIC EC 48h), more than 500 µM; in data set [3] (24 h, read-out: MIC CA 24h), more than 500 µM; in [3] (48 h, read-out: MIC CA 48h), more than 500 µM; in [4] (24 h, read-out: MIC CK 24h), more than 500 µM. Moreover, the MIC is more than 500 µM in data set [4] (48 h, read-out: MIC CK 48h); more than 500 µM in [6] (24 h, read-out: MIC ACI 24h); more than 500 µM in [6] (48 h, read-out: MIC ACI 48h); more than 500 µM in [7] (24 h, read-out: MIC PA 24h); more than 500 µM in [7] (48 h, read-out: MIC PA 48h); more than 500 µM in [8] (24 h, read-out: MIC MRSA 24h). Further, the MIC was more than 500 µM in data set [8] (48 h, read-out: MIC MRSA 48h); more than 500 µM in [9] (setting [10]); more than 500 µM in [9] (setting [11]).
With `O=C(Cc1ccccc1C(F)(F)F)Nc1cccc(Cl)n1` [Compound 24], the IC50 in the data set on A498 cell line was 278 µM; in the data set on HepG2 cell line (Homo sapiens, HepG2, 24 h) it was 64.6 µM; in the data set on PC‐3 cell line, more than 100 µM. For the same compound, the MIC in data set [1] is more than 500 µg/mL; in [2] (24 h, read-out: MIC EC 24h) it was more than 500 µM; in data set [2] (48 h, read-out: MIC EC 48h), more than 500 µM; in data set [3] (24 h, read-out: MIC CA 24h) it was more than 500 µM; in [3] (48 h, read-out: MIC CA 48h), more than 500 µM; in data set [4] (24 h, read-out: MIC CK 24h) it was more than 500 µM. The MIC was more than 500 µM in data set [4] (48 h, read-out: MIC CK 48h); more than 500 µM in [6] (24 h, read-out: MIC ACI 24h); more than 500 µM in data set [6] (48 h, read-out: MIC ACI 48h); more than 500 µM in [7] (24 h, read-out: MIC PA 24h); more than 500 µM in data set [7] (48 h, read-out: MIC PA 48h); more than 500 µM in [8] (24 h, read-out: MIC MRSA 24h). For the same compound, the MIC is more than 500 µM in data set [8] (48 h, read-out: MIC MRSA 48h); more than 500 µM in [9] (setting [10]); more than 500 µM in [9] (setting [11]). Also, in [5], the “concentration remaining (hydrolytic stability)” value was not below 90%.
As for `O=C(Cc1cccc(C(F)(F)F)c1)Nc1ccc(Cl)cn1` [Compound 26], the IC50 in the data set with A498 cell line amounted to 128 µM; in the data set on HepG2 cell line (Homo sapiens, HepG2, 24 h), 52.9 µM; in the data set on PC‐3 cell line, 73.1 µM. Further, the MIC in data set [1] is more than 500 µg/mL; in data set [2] (24 h, read-out: MIC EC 24h), more than 500 µM; in data set [2] (48 h, read-out: MIC EC 48h) it was more than 500 µM; in [3] (24 h, read-out: MIC CA 24h), more than 500 µM; in data set [3] (48 h, read-out: MIC CA 48h), more than 500 µM; in data set [4] (24 h, read-out: MIC CK 24h), more than 500 µM. For the same compound, the MIC is more than 500 µM in data set [4] (48 h, read-out: MIC CK 48h); more than 500 µM in [6] (24 h, read-out: MIC ACI 24h); more than 500 µM in data set [6] (48 h, read-out: MIC ACI 48h); more than 500 µM in data set [7] (24 h, read-out: MIC PA 24h); more than 500 µM in [7] (48 h, read-out: MIC PA 48h); more than 500 µM in data set [8] (24 h, read-out: MIC MRSA 24h). The MIC in [8] (48 h, read-out: MIC MRSA 48h) was more than 500 µM; in data set [9] (setting [10]), more than 500 µM; in [9] (setting [11]) it was more than 500 µM.
